Assay: Antioxidant effect, ORAC-FL method (capacity to capture free radicals)
Settings: 75 mM phosphate buffer pH 7.4, 37° C., compounds tested at 4 concentrations
Text: Given that in many neurodegenerative diseases neuronal death occurs due to oxidative stress, the capacity of these compounds to capture free radicals has been evaluated using the ORAC methodology.
Determination is following the ORAC-FL method of Ou et al. partially adapted by BMG LABTECH (BMG LABTECH Application note 148 (2006): ORAC Assay on the FLUOstar OPTIMA to Determine Antioxidant Capacity. http://www.bmglabtech.com/application-notes/fluorescence-intensity/orac 148.cfm). The FLUOstar Optima (BMG Labtechnologies GmbH, Offenburg, Germany) plate reader was used with an excitation filter at 485 nm excitation and 520 nm emission. 2,2′-Azobis-(amidinopropane) dihydrochloride (AAPH), (±)-6-hydroxy-2,5,7,8-tetramethylchromane-2-carboxylic acid (trolox) and fluorescein (FL) are purchased from Sigma-Aldrich. The reaction is carried out in 75 mM phosphate buffer (pH 7.4) and a final reaction volume of 200 μL. The antioxidant (25 μL) and fluorescein (150 μL; 10 nM) are placed on black 96-well plates (96F untreat, Nunc™). The mixture is pre-incubated during 30 minutes at 37° C. afterwards rapidly adding a solution of AAPH (25 μL, 240 mM), using a multi-channel pipette. The microplate is rapidly placed on the reader and fluorescence is measured every 90 sec during 90 min. The 96-well plate is agitated automatically before each reading. The compounds are tested at 4 different concentrations (10-1 μ). A blank is also placed (FL+AAPH in phosphate buffer) and as reference compound four concentrations of trolox (10-1 μM). All reactions are carried out in duplicate, and at least three different tests per compound. Data are exported to an Excel spreadsheet (Microsoft), representing absorbance versus time and subsequently the area under curve is calculated following the formula (1) AUC=f1/f0+fi/f0+ . . . +f34/f0+(f35/f0) wherein: AUC=area under curve • f0=fluorescence measured at time 0 • fi=fluorescence measured at time t
The net AUC values of each compound are determined by subtracting from the AUC value of the compound the AUC value of the blank (FL+AAPH in phosphate buffer).
The measurement of antioxidant is expressed in trolox equivalents. Relative trolox equivalents are calculated according to formula (2): […]

| Compound | Antioxidant capacity, Trolox equivalents |
| --- | --- |
| O=c1c2ccccc2[nH]c(=S)n1-c1ccccc1 [Comp. 1, 3-phenyl-4-oxo-2-thioxo-1,2,3,4-tetrahydroquinazoline] | 1.19 Trolox equivalents |
| O=c1c2ccccc2[nH]c(=S)n1-c1c(F)cccc1F [Comp. 2, 3-(2,6-difluorophenyl)-4-oxo-2-thioxo-1,2,3,4-tetrahydroquinazoline] | Not to 10 μM |
| Cc1cccc2c(=O)n(-c3ccccc3Br)c(=S)[nH]c12 [Comp. 3, 3-(2-bromophenyl)-8-methyl-4-oxo-2-thioxo-1,2,3,4-tetrahydroquinazoline] | 1.31 Trolox equivalents |
| CSc1nc2c(C)cccc2c(=O)n1-c1c(F)cccc1F [Comp. 4, 3-(2,6-difluorophenyl)-8-methyl-2-methylthio-4-oxo-3,4-dihydroquinazoline] | 0.13 Trolox equivalents |
| CSc1nc2c(C)cccc2c(=O)n1-c1ccccc1Br [Comp. 5, 3-(2-bromophenyl)-8-methyl-2-methylthio-4-oxo-3,4-dihydroquinazoline] | Not to 10 μM |
| S=c1[nH]c2ccccc2c(=S)n1-c1ccccc1 [Comp. 6, 3-phenyl-2,4-dithioxo-1,2,3,4-tetrahydroquinazoline] | 0.46 Trolox equivalents |
| CSc1nc2ccccc2c(=S)n1-c1ccccc1 [Comp. 7, 3-phenyl-2-methylthio-4-thioxo-3,4-dihydroquinazoline] | 0.37 Trolox equivalents |

Assay: not given
Settings: commercial drugs used to validate the PAMPA assay; literature value; cited from earlier work

| Compound | Bibliography (described permeability) |
| --- | --- |
| CCn1cc(C(=O)O)c(=O)c2cc(F)c(N3CCNCC3)nc21 [Enoxacine] | 1.8 |
| CN(C)CCCN1c2ccccc2Sc2ccccc21 [Promazine] | 8.1 |

Reference: patent US9192610B2, “Use of quinazoline derivatives for neurodegenerative diseases” (CONSEJO SUPERIOR DE INVESTIGACIONES CIENTIFICAS, priority 2009, dated 2015)
